Test results reported in PubChem BioAssay AID192 (DTP/NCI, 2004).
Where “and” joins values, the source holds several entries; their conditions need not be identical. Equal entries are not always repeated. Toxic doses and inconclusive results are not listed.

System: BDF1 mice, B16 melanoma ip, median survival T/C
Test: NCI In Vivo Anticancer Drug Screen. Data for tumor model B16 Melanoma (intraperitoneal) in B6D2F1 (BDF1) mice
Conditions: endpoint: median survival time, higher = longer survival
How it was run: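 In this screen, activity was judged from survival or tumor size in treated versus vehicle-treated tumor-bearing mice, reported as T/C.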

[1] = dose: 12.5 mg/kg/injection, schedule: Q01DX009 (ip), vehicle: saline with Tween-80
[2] = dose: 25.0 mg/kg/injection, schedule: Q01DX009 (ip), vehicle: saline with Tween-80
[3] = dose: 50.0 mg/kg/injection, schedule: Q01DX009 (ip), vehicle: saline with Tween-80
[4] = dose: 100.0 mg/kg/injection, schedule: Q01DX009 (ip), vehicle: saline with Tween-80

How did the T/C (dose: 0.75 mg/kg/injection, schedule: Q01DX009 (ip), vehicle: saline with Tween-80) turn out when `COC1/C=C\C=C(/C)C(=O)NC2=CC(=O)C(N)=C(CC(C)CC(OC)C(O)C(C)C=C(C)C1OC(N)=O)C2=O` (centres undefined) was run?
Its T/C is 117 % of control.

What does the source list for `Cc1cc(C)cc(OC(=O)Nc2ccccc2Cl)c1`?
T/C (dose: 100.0 mg/kg/injection, schedule: Q04DX003 (ip), vehicle: Klucel (hydroxypropylcellulose) (HPC)): 96 % of control; T/C (dose: 200.0 mg/kg/injection, schedule: Q04DX003 (ip), vehicle: Klucel (hydroxypropylcellulose) (HPC)): 96 % of control; T/C (dose: 400.0 mg/kg/injection, schedule: Q04DX003 (ip), vehicle: Klucel (hydroxypropylcellulose) (HPC)): 106 % of control

Which results are given for `O=C(CCc1ccc(O)cc1)c1c(O)cc(O)cc1O`?
T/C (dose: 50.0 mg/kg/injection, schedule: Q01DX009 (ip), vehicle: saline + alcohol): 110 % of control; T/C (dose: 100.0 mg/kg/injection, schedule: Q01DX009 (ip), vehicle: saline + alcohol): 102 % of control; T/C (dose: 400.0 mg/kg/injection, schedule: Q01DX009 (ip), vehicle: saline + alcohol): 107 % of control

With `Cc1c(Cl)cccc1NC(=O)NCCC(C)C` as the compound, how does the T/C [1] read?
Its T/C is 103 % of control.

And the T/C [2]?
Its T/C is 100 % of control.

And the T/C [3]?
The T/C was 96 % of control.

With `Cc1c(Cl)cccc1NC(=O)c1cccc(C(=O)Nc2cccc(Cl)c2C)c1` as the compound, how does the T/C (dose: 100.0 mg/kg/injection, schedule: Q01DX009 (ip), vehicle: Klucel (hydroxypropylcellulose) (HPC)) read?
Its T/C is 106 % of control.

What about the T/C (dose: 200.0 mg/kg/injection, schedule: Q01DX009 (ip), vehicle: Klucel (hydroxypropylcellulose) (HPC)) of the same compound?
Its T/C is 103 % of control.

And the T/C (dose: 400.0 mg/kg/injection, schedule: Q01DX009 (ip), vehicle: Klucel (hydroxypropylcellulose) (HPC))?
The T/C was 93 % of control.

With `C1CN(P2(N3CC3)=NP(N3CC3)(N3CC3)=NP(N3CC3)(N3CC3)=N2)CCO1` (centres undefined) as the compound, how does the T/C (dose: 0.25 mg/kg/injection, schedule: Q01DX009 (ip), vehicle: saline) read?
Its T/C is 101 % of control.

And the T/C (dose: 0.5 mg/kg/injection, schedule: Q01DX009 (ip), vehicle: saline)?
Its T/C is 117 % of control.

And the T/C (dose: 1.0 mg/kg/injection, schedule: Q01DX009 (ip), vehicle: saline)?
Its T/C is 117 % of control.

And the T/C (dose: 1.0 mg/kg/injection, schedule: Q02DX009 (ip), vehicle: saline)?
The T/C was 98 % of control and 104 % of control.

What about the T/C (dose: 2.0 mg/kg/injection, schedule: Q01DX009 (ip), vehicle: saline) of the same compound?
Its T/C is 120 % of control.

And the T/C (dose: 2.0 mg/kg/injection, schedule: Q02DX009 (ip), vehicle: saline)?
The T/C was 98 % of control and 121 % of control.

What about the T/C (dose: 3.13 mg/kg/injection, schedule: Q01DX009 (ip), vehicle: saline) of the same compound?
The T/C was 111 % of control and 112 % of control.

And the T/C (dose: 3.13 mg/kg/injection, schedule: Q02DX009 (ip), vehicle: saline)?
Its T/C is 110 % of control and 115 % of control.

What about the T/C (dose: 4.0 mg/kg/injection, schedule: Q01DX009 (ip), vehicle: saline) of the same compound?
The T/C was 116 % of control.

And the T/C (dose: 4.0 mg/kg/injection, schedule: Q02DX009 (ip), vehicle: saline)?
Its T/C is 106 % of control and 122 % of control.

And the T/C (dose: 6.25 mg/kg/injection, schedule: Q02DX009 (ip), vehicle: saline)?
Its T/C is 93 % of control.

And the T/C (dose: 8.0 mg/kg/injection, schedule: Q02DX009 (ip), vehicle: saline)?
The T/C was 108 % of control.

And the T/C (dose: 12.5 mg/kg/injection, schedule: Q02DX009 (ip), vehicle: saline)?
The T/C was 154 % of control and 156 % of control.

And the T/C (dose: 16.0 mg/kg/injection, schedule: Q02DX009 (ip), vehicle: saline)?
The T/C was 151 % of control and 171 % of control.

What about the T/C (dose: 25.0 mg/kg/injection, schedule: Q02DX009 (ip), vehicle: saline) of the same compound?
The T/C was 164 % of control and 186 % of control and 200 % of control.

`C#CCOCC(O)CN` (centres undefined) was tested. Which T/C (dose: 100.0 mg/kg/injection, schedule: Q04DX003 (ip), vehicle: saline) did it give?
The T/C was 104 % of control.

What about the T/C (dose: 200.0 mg/kg/injection, schedule: Q04DX003 (ip), vehicle: saline) of the same compound?
Its T/C is 100 % of control.

And the T/C (dose: 400.0 mg/kg/injection, schedule: Q04DX003 (ip), vehicle: saline)?
Its T/C is 102 % of control.

Which T/C [1] does the source give for `Nc1ccc(Cl)cc1N` here?
The T/C was 104 % of control.

What about the T/C [2] of the same compound?
The T/C was 105 % of control.

And the T/C [3]?
Its T/C is 102 % of control.

And the T/C [4]?
The T/C was 99 % of control.

Which T/C (dose: 1.0 mg/kg/injection, schedule: Q01DX009 (ip), vehicle: saline with Tween-80) does the source give for `CCCCCCCCCCCCCCCC(=O)OCC1OC(n2ccc(N)nc2=O)C(O)C1O` (centres undefined) here?
Its T/C is 103 % of control.

What about the T/C (dose: 2.0 mg/kg/injection, schedule: Q01DX009 (ip), vehicle: saline with Tween-80) of the same compound?
The T/C was 114 % of control.

What about the T/C (dose: 2.5 mg/kg/injection, schedule: Q01DX001 (ip), vehicle: saline with Tween-80) of the same compound?
Its T/C is 99 % of control.

What about the T/C (dose: 4.0 mg/kg/injection, schedule: Q01DX009 (ip), vehicle: saline with Tween-80) of the same compound?
Its T/C is 116 % of control.

And the T/C (dose: 5.0 mg/kg/injection, schedule: Q01DX001 (ip), vehicle: saline with Tween-80)?
Its T/C is 100 % of control.

And the T/C (dose: 10.0 mg/kg/injection, schedule: Q01DX001 (ip), vehicle: saline with Tween-80)?
The T/C was 110 % of control.

What about the T/C (dose: 20.0 mg/kg/injection, schedule: Q01DX001 (ip), vehicle: saline with Tween-80) of the same compound?
Its T/C is 104 % of control.

What about the T/C (dose: 25.0 mg/kg/injection, schedule: Q04DX003 (ip), vehicle: saline with Tween-80) of the same compound?
Its T/C is 122 % of control.

And the T/C (dose: 30.0 mg/kg/injection, schedule: Q01DX009 (ip), vehicle: saline with Tween-80)?
The T/C was 170 % of control.

What about the T/C (dose: 37.5 mg/kg/injection, schedule: Q01DX001 (ip), vehicle: saline) of the same compound?
Its T/C is 152 % of control.

And the T/C (dose: 75.0 mg/kg/injection, schedule: Q01DX001 (ip), vehicle: saline)?
The T/C was 186 % of control.

For `CC[C@@]1(O)C[C@H](OC2CC(N(C)C)C(OC3CC(O)C(O[C@@H]4O[C@@H](C)C(=O)C=C4N)C(C)O3)C(C)O2)c2c(cc3c(c2O)C(=O)c2c(O)ccc(O)c2C3=O)[C@H]1C(=O)OC` (some centres undefined), which T/C (dose: 0.03 mg/kg/injection, schedule: Q01DX001 (ip), vehicle: saline) is on record?
Its T/C is 113 % of control.

And the T/C (dose: 0.05 mg/kg/injection, schedule: Q01DX001 (ip), vehicle: saline)?
Its T/C is 109 % of control.

And the T/C (dose: 0.38 mg/kg/injection, schedule: Q01DX009 (ip), vehicle: saline)?
The T/C was 178 % of control.

And the T/C (dose: 0.75 mg/kg/injection, schedule: Q01DX009 (ip), vehicle: saline)?
Its T/C is 167 % of control.

And the T/C (dose: 1.5 mg/kg/injection, schedule: Q01DX009 (ip), vehicle: saline)?
The T/C was 223 % of control.

What about the T/C (dose: 1.6 mg/kg/injection, schedule: Q01DX001 (ip), vehicle: saline) of the same compound?
Its T/C is 159 % of control.

What about the T/C (dose: 3.2 mg/kg/injection, schedule: Q01DX001 (ip), vehicle: saline) of the same compound?
Its T/C is 114 % of control.

What about the T/C (dose: 1.0 micrograms/kg/injection, schedule: Q01DX005 (ip), vehicle: Klucel (hydroxypropylcellulose) (HPC)) of the same compound?
Its T/C is 110 % of control.

And the T/C (dose: 2.0 micrograms/kg/injection, schedule: Q01DX005 (ip), vehicle: Klucel (hydroxypropylcellulose) (HPC))?
Its T/C is 100 % of control.

What about the T/C (dose: 4.0 micrograms/kg/injection, schedule: Q01DX005 (ip), vehicle: Klucel (hydroxypropylcellulose) (HPC)) of the same compound?
Its T/C is 107 % of control.

What about the T/C (dose: 8.0 micrograms/kg/injection, schedule: Q01DX005 (ip), vehicle: Klucel (hydroxypropylcellulose) (HPC)) of the same compound?
Its T/C is 103 % of control.

What does the source list for `COC(=O)/C=C/C=C(c1ccccc1)c1ccccc1`?
T/C [3]: 94 % of control; T/C [4]: 100 % of control; T/C (dose: 200.0 mg/kg/injection, schedule: Q01DX009 (ip), vehicle: saline with Tween-80): 94 % of control; T/C (dose: 400.0 mg/kg/injection, schedule: Q01DX009 (ip), vehicle: saline with Tween-80): 94 % of control

What does the source list for `O=C(CCBr)N1CCN(C(=O)CCBr)CC1`?
T/C (dose: 2.5 mg/kg/injection, schedule: Q01DX009 (ip), vehicle: saline with Tween-80): 100 % of control; T/C (dose: 5.0 mg/kg/injection, schedule: Q01DX009 (ip), vehicle: saline with Tween-80): 102 % of control; T/C (dose: 5.0 mg/kg/injection, schedule: Q01DX009 (ip), vehicle: saline): 109 % of control; T/C (dose: 10.0 mg/kg/injection, schedule: Q01DX009 (ip), vehicle: saline with Tween-80): 104 % of control; T/C (dose: 10.0 mg/kg/injection, schedule: Q01DX009 (ip), vehicle: saline): 111 % of control and 117 % of control; T/C (dose: 20.0 mg/kg/injection, schedule: Q01DX009 (ip), vehicle: saline with Tween-80): 116 % of control; T/C (dose: 20.0 mg/kg/injection, schedule: Q01DX009 (ip), vehicle: saline): 119 % of control; T/C (dose: 40.0 mg/kg/injection, schedule: Q01DX009 (ip), vehicle: saline with Tween-80): 122 % of control

For `O=C(Nc1ccccc1)Nc1cc(C(F)(F)F)ccc1Cl`, which T/C (dose: 100.0 mg/kg/injection, schedule: Q04DX009 (ip), vehicle: Klucel (hydroxypropylcellulose) (HPC)) is on record?
Its T/C is 109 % of control.

And the T/C (dose: 200.0 mg/kg/injection, schedule: Q04DX003 (ip), vehicle: carboxymethylcellulose (CMC))?
The T/C was 90 % of control.

What about the T/C (dose: 200.0 mg/kg/injection, schedule: Q04DX009 (ip), vehicle: Klucel (hydroxypropylcellulose) (HPC)) of the same compound?
The T/C was 106 % of control.

And the T/C (dose: 400.0 mg/kg/injection, schedule: Q04DX003 (ip), vehicle: carboxymethylcellulose (CMC))?
Its T/C is 92 % of control.

And the T/C (dose: 400.0 mg/kg/injection, schedule: Q04DX009 (ip), vehicle: Klucel (hydroxypropylcellulose) (HPC))?
Its T/C is 86 % of control.
